# Where two headings read alike, the source gives them in different places.
# Legend:
# [1] = Change of relative liver weight and liver findings in the 7-day oral rat study; format: in vivo, männlichen Wistar-Ratten; settings: oral (gavage), 7 days, male Wistar rats
# Text: Die erfindungsgemäßen Verbindungen haben wertvolle therapeutische Eigenschaften. So erniedrigen sie vor allem die Konzentration von LDL und VLDL, die HDL-Fraktion aber kaum, in vielen Fällen wird diese Fraktion sogar vermehrt. Diese Verbindungen stellen daher einen wesentlichen Fortschritt gegenüber der Vergleichsverbindung Clofibrat dar, wie aus .den nachfolgend beschriebenen Daten ersichtlich ist. Sie können daher zur Prophylaxe und Regression von arteriosklerotischen Veränderungen herangezogen werden, indem sie einen kausalen Risikofaktor ausschalten. Hierzu zählen nicht nur die primären Hyperlidämien, sondern auch gewisse sekundäre Hyperlipidämien wie sie z.B. beim Diabetes vorkommen. […] Die mit einer hypolipidämischen Wirkung verbundene unerwünschte Beeinflussung der Leber zeigt sich auch in sehr starkem Maße bei der in J.Med.Chem. 18 (1975) S. 833-836 beschriebenen Vergleichsverbindung 1-(4-Methylbenzyl)-imidazol. […] Die erfindungsgemäßen Verbindungen zeigen dieses unerwünschte Verhalten nicht.
# (§1) Die Wirkung der angeführten Verbindungen auf die Serum- Lipoproteine wurde an männlichen Wistar-Ratten untersucht, die 7 Tage per Schlundsonde mit den angeführten in Polyäthylenglykol 400 suspendierten Verbindungen behandelt wurden. Außerdem wurde eine Kontrollgruppe, die nur das Lösungsmittel Polyäthylenglykol 400 erhielt, mitgeführt, sowie bei den meisten Versuchen eine Ratten-Gruppe mit dem Standardhypolipidämikum Clofibrat. Pro Gruppe wurden in der Regel 10 Tiere eingesetzt, denen am Ende der Behandlung das Blut nach leichter Äthernarkose aus dem Orbitalplexus entnommen wurde. Aus dem gewonnenen Ratten-Serum wurden die Serum- Lipoproteine in der präparativen Ultrazentrifuge in folgende Dichteklassen getrennt: VLDL < 1,006; LDL 1,006 bis 1,04; HDL 1,04 bis 1,21
# [2] = test system: Serum-Lipoproteine; experiment: Change of serum and lipoprotein-fraction cholesterol in rats after 7 days of oral treatment (ultracentrifuge fractionation, CHOD-PAP cholesterol); format: in vivo, männlichen Wistar-Ratten; settings: Rattus norvegicus, 168 h, oral (gavage), 7 days, male Wistar rats; for change in vivo at 1 mg/kg: 1 mg/kg / Tag; for change in vivo at 3 mg/kg: 3 mg/kg / Tag; for change in vivo at 10 mg/kg: 10 mg/kg / Tag
# Text: as §1
# Da nämlich im Gegensatz zum Menschen die Serumlipoproteine der Ratte etwa 4/5 HDL-Cholesterin und nur 1/5 LDL-Cholesterin enthalten und nur sehr geringe Mengen von VLDL (beim Menschen umgekehrt etwa 2/3 LDL und VLDL und nur 1/3 bis 1/4 HDL), macht die Beurteilung einer hypolipidämischen Wir- .kung an der Ratte unbedingt eine Fraktionierung des Ratten-serums in Lipoproteinklassen erforderlich. Eine bloße Erniedrigung des Serum-Total-cholesteringehaltes an der Ratte würde nämlich nur die unerwünschte Erniedrigung der bei der Ratte vorwiegenden antiatherogenen HDL-Klasse anzeigen. Eine erwünschte Erniedrigung von LDL bei gleichzeitiger erwünschter Vermehrung von HDL hätte aber keine (wesentliche) Auswirkung auf den Totalcholesteringehalt des Ratten-Serums.
# Aus den in der Ultrazentrifuge isolierten LipoproteinFraktionen wurde das darin enthaltene Cholesterin vollenzymatisch nach der CHOD-PAP-Methode mittels der Testkombination von Boehringer-Mannheim bestimmt und die Werte in µg/ml Serum umgerechnet. In der angeführten Tabelle ist die Veränderung des Lipoprotein-Cholesterins in der behandelten Gruppe gegenüber einer unter gleichen Bedingungen mitgeführten Kontrollgruppe angegeben.
# Veränderung in % der Lipoproteine im Ratten-Serum nach siebentägiger oraler Applikation der Verbindungen
# [3] = read-out: Cholesterolveränderung in %, bezogen auf die Kontrollgruppe in den Serum-Lipoprotein-Fraktionen HDL
# [4] = read-out: Cholesterolveränderung in %, bezogen auf die Kontrollgruppe in den Serum-Lipoprotein-Fraktionen LDL
# [5] = read-out: Cholesterolveränderung in %, bezogen auf die Kontrollgruppe in den Serum-Lipoprotein-Fraktionen VLDL
compound,measurement,setting,value
"Cc1cc(Cn2ccnc2)cc(C)c1OCc1ccc(C(=O)C(C)(C)C)cc1 [Beispiel 3, 4-[2,6-Dimethyl-4-(imidazol-1-ylmethyl)-phenoxymethyl]-phenyl-tert.-butyl-keton]",% Veränderung des relativen Lebergewichtes,[1]; 1 mg/kg / Tag,-2%
same,% Veränderung des relativen Lebergewichtes,[1]; 3 mg/kg / Tag,-4%
same,change in vivo at 1 mg/kg,[2]; [3],5%
same,change in vivo at 1 mg/kg,[2]; [4],-33%
same,change in vivo at 1 mg/kg,[2]; [5],30%
same,change in vivo at 3 mg/kg,[2]; [3],2%
same,change in vivo at 3 mg/kg,[2]; [4],-36%
same,change in vivo at 3 mg/kg,[2]; [5],17%
same,change in vivo at 10 mg/kg,[2]; [3],2%
same,change in vivo at 10 mg/kg,[2]; [4],-45%
same,change in vivo at 10 mg/kg,[2]; [5],-58%

# Source: EP0104572A1, “Benzyl ethers of phenol Mannich bases, process for their production, their use and pharmaceutical preparations based on these compounds, intermediates and process for their production” (priority 1982, dated 1984)
